Source: US8952024B2, “Herbicidal pyrimidone derivatives” (E I du Pont de Nemours and Company, priority 2009, dated 2015)

How the values were obtained:
Assay in all cases: Test D pre-/postemergence plant response
Format in all cases: in vivo
[1] = tested on: quackgrass (Elytrigia repens)
Outline: (§1)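 Both preemergence and postemergence treatments were made at the same time, with the compound in a non-phytotoxic, surfactant-containing solvent mixture. Plants grew in a greenhouse for 14–21 days before visual evaluation, scored from 0 (no effect) to 100 (complete control).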

[2] = tested on: nutsedge (purple nutsedge, Cyperus rotundus)
Outline: as §1

[3] = tested on: chickweed (common chickweed, Stellaria media)
Outline: as §1

[4] = Postemergence, 31 g ai/ha, scale 0 to 100
[5] = Postemergence, 62 g ai/ha, scale 0 to 100 (0 no effect, 100 complete control)
[6] = Postemergence, 125 g ai/ha, scale 0 to 100 (0 no effect, 100 complete control)
[7] = Postemergence, 250 g ai/ha, scale 0 to 100 (0 no effect, 100 complete control)
[8] = Postemergence, 16 g ai/ha, scale 0 to 100
[9] = Preemergence, 16 g ai/ha, scale 0 to 100, 0 no effect, 100 complete control
[10] = Preemergence, 31 g ai/ha, scale 0 to 100 (0 no effect, 100 complete control)
[11] = Preemergence, 125 g ai/ha, scale 0 to 100
[12] = Preemergence, 62 g ai/ha, scale 0 to 100

CCCCn1c(-c2cc(F)cc(F)c2)ncc(C(=O)C2=C(O)C3CCC(C3)C2=O)c1=O (centres unmarked) [Compound 245]
Plant response rating, Quackgrass [1, 4]: 20
Plant response rating, Quackgrass [1, 5]: 35
Plant response rating, Quackgrass [1, 6]: 40
Plant response rating, Quackgrass [1, 7]: 65
Plant response rating, Nutsedge, Purple [2, 4]: 5
Plant response rating, Nutsedge, Purple [2, 5]: 5
Plant response rating, Nutsedge, Purple [2, 6]: 5
Plant response rating, Nutsedge, Purple [2, 7]: 20
Plant response rating, Chickweed [3, 4]: 5
Plant response rating, Chickweed [3, 5]: 25
Plant response rating, Chickweed [3, 6]: 50
Plant response rating, Chickweed [3, 7]: 50

COCCCn1c(-c2cccc(F)c2)ncc(C(=O)C2=C(O)C3CCC(C3)C2=O)c1=O (centres unmarked) [Compound 238]
Plant response rating, Quackgrass [1, 4]: 5
Plant response rating, Quackgrass [1, 5]: 5
Plant response rating, Quackgrass [1, 6]: 30
Plant response rating, Quackgrass [1, 7]: 40
Plant response rating, Nutsedge, Purple [2, 4]: 5
Plant response rating, Nutsedge, Purple [2, 5]: 10
Plant response rating, Nutsedge, Purple [2, 6]: 20
Plant response rating, Nutsedge, Purple [2, 7]: 20
Plant response rating, Chickweed [3, 4]: 30
Plant response rating, Chickweed [3, 5]: 35
Plant response rating, Chickweed [3, 6]: 40
Plant response rating, Chickweed [3, 7]: 50

COCCn1c(-c2ccsc2)ncc(C(=O)C2=C(O)C3CCC(C3)C2=O)c1=O (centres unmarked) [Compound 228]
Plant response rating, Quackgrass [1, 6]: 5
Plant response rating, Nutsedge, Purple [2, 6]: 15
Plant response rating, Chickweed [3, 6]: 75

COCCn1c(-c2ccccc2)ncc(C(=O)C2=C(O)CCCC2=O)c1=O [Compound 85]
Plant response rating, Quackgrass [1, 4]: 0
Plant response rating, Quackgrass [1, 5]: 15
Plant response rating, Quackgrass [1, 6]: 20
Plant response rating, Quackgrass [1, 8]: 0
Plant response rating, Quackgrass [1, 9]: 0
Plant response rating, Quackgrass [1, 10]: 0
Plant response rating, Quackgrass [1, 11]: 20
Plant response rating, Nutsedge, Purple [2, 4]: 30
Plant response rating, Nutsedge, Purple [2, 5]: 50
Plant response rating, Nutsedge, Purple [2, 6]: 65
Plant response rating, Nutsedge, Purple [2, 8]: 5
Plant response rating, Nutsedge, Purple [2, 9]: 70
Plant response rating, Nutsedge, Purple [2, 10]: 75
Plant response rating, Nutsedge, Purple [2, 12]: 95
Plant response rating, Nutsedge, Purple [2, 11]: 95
Plant response rating, Chickweed [3, 4]: 80
Plant response rating, Chickweed [3, 5]: 100
Plant response rating, Chickweed [3, 6]: 100
Plant response rating, Chickweed [3, 9]: 90
Plant response rating, Chickweed [3, 10]: 100
Plant response rating, Chickweed [3, 12]: 100
Plant response rating, Chickweed [3, 11]: 100

O=C1CCCC(O)=C1C(=O)c1cnc(-c2ccccc2)n(CC2CCCO2)c1=O (centres unmarked) [Compound 59]
Plant response rating, Quackgrass [1, 4]: 0
Plant response rating, Quackgrass [1, 5]: 0
Plant response rating, Quackgrass [1, 6]: 0
Plant response rating, Quackgrass [1, 8]: 0
Plant response rating, Quackgrass [1, 9]: 0
Plant response rating, Quackgrass [1, 10]: 0
Plant response rating, Quackgrass [1, 11]: 0
Plant response rating, Nutsedge, Purple [2, 4]: 0
Plant response rating, Nutsedge, Purple [2, 5]: 20
Plant response rating, Nutsedge, Purple [2, 6]: 25
Plant response rating, Nutsedge, Purple [2, 8]: 0
Plant response rating, Nutsedge, Purple [2, 9]: 0
Plant response rating, Nutsedge, Purple [2, 10]: 20
Plant response rating, Nutsedge, Purple [2, 12]: 20
Plant response rating, Nutsedge, Purple [2, 11]: 80
Plant response rating, Chickweed [3, 4]: 70
Plant response rating, Chickweed [3, 5]: 70

COCCn1c(-c2cccc(C)c2)ncc(C(=O)C2=C(O)C3CCC(C3)C2=O)c1=O (centres unmarked) [Compound 233]
Plant response rating, Quackgrass [1, 4]: 0
Plant response rating, Quackgrass [1, 5]: 10
Plant response rating, Quackgrass [1, 6]: 25
Plant response rating, Quackgrass [1, 8]: 0
Plant response rating, Quackgrass [1, 9]: 0
Plant response rating, Quackgrass [1, 10]: 0
Plant response rating, Quackgrass [1, 11]: 0
Plant response rating, Nutsedge, Purple [2, 4]: 0
Plant response rating, Nutsedge, Purple [2, 5]: 0
Plant response rating, Nutsedge, Purple [2, 6]: 0
Plant response rating, Nutsedge, Purple [2, 8]: 0
Plant response rating, Nutsedge, Purple [2, 9]: 0
Plant response rating, Nutsedge, Purple [2, 10]: 0
Plant response rating, Nutsedge, Purple [2, 12]: 0
Plant response rating, Nutsedge, Purple [2, 11]: 5
Plant response rating, Chickweed [3, 4]: 50
Plant response rating, Chickweed [3, 6]: 60
